# According to patent US9994915B2, “miR-211 expression and related pathways in human melanoma” (Sanford-Burnham Medical Research Institute, priority 2010, dated 2018):
# What was measured:
# Type in all cases: cell-based, human
# [1] = system: WM1552C melanoma cells; experiment: Matrigel invasion chamber assay; conditions: 48 hours
# Method: BD BioCoat™ growth factor reduced insert plates (Matrigel™ Invasion Chamber 12 well plates) were prepared by rehydrating the BD Matrigel™ matrix coating in the inserts with 0.5 mls of serum-free Complete Tu media for two hours at 37° C. The rehydration solution was carefully removed from the inserts, 0.5 ml Complete Tu (2% FBS) was added to the lower wells of the plate, and 2.5×10^4 cells suspended in 0.5 ml of serum-free Complete Tu media were added to each insert well. WM1552C/211(800) cells were additionally transfected with the Anti-miR miRNA Inhibiter for hsa-miR-211 as well as Negative Control #1 (Ambion) (miR-Scramble) at a concentration of 100 nM using siPORT NeoFX (Ambion). […] The number of migrating tumor cells was counted from each of five images per cell line (including miR Inhibiter transfected cells) in the central area of the filter. […] Data are expressed as the percent invasion through the membrane relative to the migration of WM1552C (Wild Type) through the membrane.
# The impact of miR-211 expression on the invasive properties of WM1552C. WM1552C/211(400) and WM1552C/211(800) cells, along with WM1552C/VO, WM1552C/KC KO, and untransfected WM1552C was determined. […]
# 2.5×10^5 cells WM1552C/211(800) cells were seeded into wells of a 6-well plate. […] After 48 hours, the cells were harvested by trypsinization and counted using an automated cell counter (Cellometer®, Nexcelom Bioscience). […]
# [2] = system: A375 cells; experiment: abundance of mitochondria, MitoTracker; conditions: miR-211-expressing cells
# [3] = system: KCNMA1 transcript; experiment: qRT-PCR of KCNMA1 transcript in WM1552C lines; conditions: WM1552C/211(400)
# Method: Expression levels of all statistically significant and differentially expressed mRNAs and miRNAs were confirmed by qRT-PCR using TaqMan® expression kits (Applied Biosystems) using multiple technical and biological replicates. GAPDH was used as the internal reference probe for normalization of expression values of mRNA, and RNU48 was used for normalization of miRNA. RNA analysis by Northern blots used 20 μg of total RNA concentrated from each sample (melanoma cell lines and melanocytes), separated on 15% urea denaturing polyacrylamide gels by electrophoresis. Gels were electroblotted to nylon membranes, cross-linked by UV, prehybridized in ULTRAhyb®-Oligo (Ambion) for 30 minutes at 42° C., and hybridized with 5′-biotinylated anti-miRNA DNA oligonucleotides (100 nM each) at 42° C. overnight, washed, and detected by chemiluminescence (Brightstar® detection kit, Ambion). Anti-U6 probes were used as a reference control (at 10 pM).
# qRT-PCR analyses were then run to determine whether the induced expression of miR-211 in melanoma cells could reduce KCNMA1 transcript levels. […] To further confirm our observations, we measured the correlation between miR-211 expression and KCNMA1 protein levels (FIG. 6D). […] Melanocytes were transfected with anti-miR-211 inhibitors (Exiqon) and the protein expression of KCNMA1 was measured.
# [4] = system: hypoxia-inducible factor 1 alpha (HIF-1α); experiment: level of HIF-1α in miR-211-expressing cells
# Method: Deep-sequencing (RNA-seq) and proteomics (mass spectrometry) data from two melanoma cell lines A375 and W[…], each expressing miR-211 or the empty vector, were generated. […] Energy consumption was investigated in miR-211-expressing cells. Using the Seahorse XF96 Analyzer, it was determined that miR-211-expressing melanoma cells (A375) consumed nearly double the amount of oxygen as control cells expressing the empty vector (FIG. 35). […] Finally, we measured the level of hypoxia-inducible factor 1 alpha (HIF-1α) in miR-211-expressing cells. HIF-1α expression was reduced by miR-211 expression which is an indication of cellular respiration changes (FIG. 37).
# [5] = system: PDK4 protein; experiment: western blot of PDK4 protein; conditions: miR-211-expressing melanoma cells, gel (FIG. 38)
# Excerpt: This target was further confirmed by the cleavage assay, and the downregulation was verified by western blot analysis (FIG. 38). Similarly, peroxisome proliferator-activated receptor-γ coactivator (PGC1α) was identified by the proteomics data and validated by western blot analysis. PGC1α is a low express gene in A375 cells, but it is been targeted by miR-211 according to target cleavage and qPCR results. Finally, insulin-like growth factor-binding protein 5 (IGFBP5) was identified through the RNA-seq data and results are illustrated in FIG. 34.
# [6] = system: A375 cells; experiment: cell counts in hypoxic chamber (2% O2), A375/211; conditions: A375/211 cells, hypoxic chamber 2% O2 (parental A375 about 68%)
# Excerpt: To test under actual hypoxic conditions, both cell lines were placed into a hypoxic chamber containing 2% O2 prior to determination of cell counts. […] As in the DFO-simulated hypoxic condition assay, the presence of miR-211 caused the effect to be greatly exacerbated, reducing survival to about 29%.
substance,measurement,setting,value
miR-211: pre-miR-211 sequence stably expressed from plasmid pcDNA4/miR-211 in melanoma cells; mature sequence UUCCCUUUGUCAUCCUUCGCCU (SEQ ID NO: 15) (listed as Homo sapiens),migrated less than WM1552C (invasion),[1]; WM1552C/211(400),~40%
same,migrated less than WM1552C (invasion),[1]; WM1552C/211(800),~60%
same,number of mitochondria vs empty vector-expressing cells,[2],higher number of mitochondria
same,KCNMA1 transcript expression vs wild type WM1552C,[3],down-regulates
same,HIF-1α expression,[4],reduced
same,PDK4 protein expression,[5],virtually undetectable
same,survival vs normoxic condition cells,[6],about 29%
